Measured values from patent US20040063694A1, “Compound useful for the treatment of CNS disorders” (priority 2002, published 2004).

Legend:
5HT-2 receptors = experiment: activity at 5HT-2 receptors
Description: (§1) The compound of the invention in all its forms is useful in the treatment of various central nervous system (CNS) disorders or conditions. The compound has been tested using standard behavioral models predictive of antipsychotic activity. These tests include the tests conducted in published papers mentioned above including the rat conditioned avoidance test, the rat catalepsy test and other tests including binding assays to central nervous system receptors including D-1 and D-2 dopamine receptors.

[1] = twenty-six week dog study, blood glucose levels; conditions: female beagle dogs
Protocol: In addition to total cholesterol values other parameters were measured including blood glucose levels at pretest, week 13 and week 26 of the study.

[2] = 10 mg/kg, Chakabarti et al. J. Med. Chem. 1980; cited from earlier work
[3] = 16 mg/kg, Chakabarti et al. J. Med. Chem. 1980; cited from earlier work
5HT-1 receptors = experiment: activity at 5HT-1 receptors
Description: as §1

[4] = previous dog study on a smaller group of animals, cholesterol; conditions: for rise in cholesterol: male or female beagle dogs, 4 mgs/kg/day
[5] = beagle dogs; as stated in the '382 patent (alleged); cited from earlier work
[6] = solubility in aqueous systems; assay type: physicochemical
Description: It is known that rate of dissolution of drug particles can be increased by increasing the surface area of the solid, i.e., decreasing the particle size. Consequently, methods of making finely divided drugs have been studied and efforts have been made to control the size and size range of drug particles in pharmaceutical compositions. For example, dry milling techniques have been used to reduce particle size and thereby influence drug absorption. However, in conventional dry milling, as discussed by Lachman et al., The Theory and Practice of Industrial Pharmacy, Chapter 2, “Milling”, p. 45 (1986), the limit of fineness is reached in the region of about 100 µm (=100,000 nm), where the milled material begins to cake onto the surfaces of the milling chamber. Lachman et al. note that wet grinding is beneficial in further reducing particle size, but that flocculation restricts the lower particle size limit to approximately 10 µm (=10,000 nm). Commercial airjet milling techniques have provided particles ranging in average particle size from as low as about 1 µm to 50 µm (=1,000 nm to 50,000 nm). It is […], however, that the 2-ethyl homolog of this invention is advantageously milled according to the above processes to make the compound having an average particle size of between about 1-200 micrometers. The preferred average particle size is less than 200 micrometers.

[7] = twenty-six week dog study, total cholesterol; conditions: female beagle dogs
Protocol: The dogs are studied over a course of 8 mgs/kg/day per drug for a twenty-six week period and assessed at varying time points for LDL, HDL and total cholesterol as well as having their estrous cycle monitored and measured. […] The preferred normal range in human patients of cholesterol level (total) is described in the Merck Manual as 120-220 mg/Dl.

| Compound | activity at the 5HT-2 receptors (5HT-2 receptors) | blood glucose level, week 13 ([1]; oral 8 mgs/kg/day, week 13) [mg/dL] | blood glucose level, week 26 ([1]; oral 8 mgs/kg/day, week 26) [mg/dL] | blood glucose level, pretest ([1]; pretest (before dosing)) [mg/dL] | rat conditioned avoidance test data [2] | rat catalepsy test [3] | activity at the 5HT-1 receptors (5HT-1 receptors) | rise in cholesterol relative to placebo ([4]; male beagle dogs, 8 mgs/kg/day) | rise in cholesterol [4] | cholesterol raising effect [5] | solubility in aqueous systems relative to olanzapine [6] | total average cholesterol values ([7]; 8 mgs/kg/day, twenty six weeks, effect of normal estrous cycle variations discounted) [mg/dL] | average total cholesterol value, spike at a single point early on in the study ([7]; oral 8 mgs/kg/day) [mgs/dL] | mean total cholesterol values after the full duration of the study ([7]; oral 8 mgs/kg/day, twenty-six weeks, n=15 per arm) [mgs/dL] |
| --- | --- | --- | --- | --- | --- | --- | --- | --- | --- | --- | --- | --- | --- | --- |
| CCc1cc2c(s1)Nc1ccccc1N=C2N1CCN(C)CC1 [Example 222, 2-ethyl-10-(4-methyl-1-piperazinyl)-4H-thieno[2,3-b][1,5]benzodiazepine] | shows activity | 87.9 | 77.6 | 82.5 | 2 (31-50% block) | 1 | shows activity | no rise in cholesterol | no rise in cholesterol | some cholesterol raising effect | slightly less soluble than olanzapine | ≤ 240 | 237.2 | 186.8 |
| Cc1cc2c(s1)Nc1ccccc1N=C2N1CCN(C)CC1 [olanzapine, 2-methyl-10-(4-methyl-1-piperazinyl)-4H-thieno[2,3-b][1,5]benzodiazepine, reference compound] | – | – | – | – | – | – | – | – | no rise in cholesterol | – | – | – | – | – |
